Laboratory results as given in patent publication US20160113931A1, “Method of treating and/or preventing neurodegenerative diseases” (University of Macau, priority 2014, published 2016).
pIC50: −log10 of the molar value.

Tests used:
ROCK2 = ROCK2 (Homo sapiens, UniProt O75116); experiment: Kinase activity assay ROCK2; type: biochemical; conditions: read-out: ROCK 2 IC50
Excerpt: ROCK has two isoforms (ROCK1 and ROCK2) sharing the same downstream proteins. Bioassay and molecular docking are used to compare the characteristics of BHDPC on ROCK. […] Through molecular docking and molecular dynamics simulation, the interaction between the inhibitor and ROCK1 was shown in FIG. 17.

[1] = tested on: oligodendroglial progenitor cells (OPCs); experiment: OPC proliferation (EdU incorporation assay and Ki67 immunostaining); type: cell-based, rat; conditions: 2 days
Protocol: (§1) FIGS. 10A, 10B and 10C show the effects of BHDPC in oligodendroglial progenitor cells (OPCs) proliferation. OPCs were incubated with the drugs at indicated concentrations in proliferation medium for 2 days. (FIG. 10A) The cell viability was measured by MTT assay.
(§2) Purified OPC cultures were prepared as described. In brief, primary rat mixed glial cell cultures were isolated from whole brains of postnatal day (P) 2 rats, dissociated into single cells, and cultured into poly-D-lysine (PDL) coated T75 tissue culture flasks. Plating medium consisted of Dulbecco's modified Eagle's medium (DMEM, Invitrogen, Carlsbad, Calif.) supplemented with 10% fetal bovine serum (FBS; Invitrogen, Carlsbad, Calif.), […]. Tissue cultures were maintained at 37° C. in a humidified 5% CO2 incubator, and medium was exchanged every 3 days. Once confluent (after 10-15 days), microglia were separated by mechanical shaking of flasks on a rotary shaker for 60 mM at 250 rpm and removed. […]
OPC was incubated with BHDPC or 0.1% DMSO in the proliferation medium for two days. […] Photographs were captured by fluorescence microscope.
To test the effect of BHDPC on primary OPC culture, OPCs were treated with BHDPC for 48 h and the cell viability was determined using MTT assay. […]

[2] = tested on: oligodendroglial progenitor cells (OPCs); experiment: OPC proliferation (MTT assay); type: cell-based, rat; conditions: Rattus norvegicus, 48 h, read-out: OPC viability compared with the control group
Protocol: as §1
(§3) The percentage of surviving cells was estimated by determining the activity of mitochondrial dehydrogenases with 3(4,5-dimethylthiazol-2-yl)-2,5-diphenyltetrazolium bromide (MTT) assay. After drug treatment, cells were incubated at 37° C. for 4 h in 0.5 mg/mL MTT solution. The medium was then removed, and 100 μL of DMSO was added to each well to dissolve the violet formazan crystals. The absorbance of the samples was measured at a wavelength of 570 nm with 655 nm as a reference wavelength. All values were normalized to the control groups.
(§4) Purified OPC cultures were prepared as described. In brief, primary rat mixed glial cell cultures were isolated from whole brains of postnatal day (P) 2 rats, dissociated into single cells, and cultured into poly-D-lysine (PDL) coated T75 tissue culture flasks. Plating medium consisted of Dulbecco's modified Eagle's medium (DMEM, Invitrogen, Carlsbad, Calif.) supplemented with 10% fetal bovine serum (FBS; Invitrogen, Carlsbad, Calif.), […]. Tissue cultures were maintained at 37° C. in a humidified 5% CO2 incubator, and medium was exchanged every 3 days. Once confluent (after 10-15 days), microglia were separated by mechanical shaking of flasks on a rotary shaker for […] at 250 rpm and removed. After addition of fresh medium, the remaining cells were allowed to recover overnight before repeating the mechanical shaking for an additional 16 h at 200 rpm to isolate OPCs. To ensure purity of OPC cultures, the isolated cells were transferred to a tissue culture dish, from which the loosely attached OPCs were detached by gentle shaking after 60 min, leaving behind attached microglia and astrocytes. OPCs were plated onto PDL coated 96 well plates using an automated dispenser and allowed to adhere to the plates over the next 1-2 days.
(§5) To test the effect of BHDPC on primary OPC culture, OPCs were treated with BHDPC for 48 h and the cell viability was determined using MTT assay. […] The proliferation activity of BHDPC was also confirmed by the EdU incorporative assay.

[3] = OPC proliferation (MTT assay); type: cell-based, rat; conditions: rat, primary oligodendroglial progenitor cells (OPCs), 100 μM, read-out: OPC viability compared with the control group (cytotoxicity)
Protocol: as §1, §3, §4, §5

[4] = tested on: oligodendroglial progenitor cells (OPCs); experiment: Hydrogen peroxide-induced OPC death (MTT assay); type: cell-based, rat; conditions: 30 μM, 200 μM hydrogen peroxide 6 h
Protocol: OPCs were incubated with 30 μM BHDPC or 0.1% DMSO (vehicle control) for 2 h followed by the addition or not of 200 μM H2O2 for a further 6 h (FIG. 11A) or LPS (FIG. 11B) for 24 h.
as §3
as §2, with “days.” for “days. Once confluent (after 10-15 days), microglia were separated by mechanical shaking of flasks on a rotary shaker for 60 mM at 250 rpm and removed.”

ROCK2, sequence (O75116 whole entry, species assumed, canonical isoform): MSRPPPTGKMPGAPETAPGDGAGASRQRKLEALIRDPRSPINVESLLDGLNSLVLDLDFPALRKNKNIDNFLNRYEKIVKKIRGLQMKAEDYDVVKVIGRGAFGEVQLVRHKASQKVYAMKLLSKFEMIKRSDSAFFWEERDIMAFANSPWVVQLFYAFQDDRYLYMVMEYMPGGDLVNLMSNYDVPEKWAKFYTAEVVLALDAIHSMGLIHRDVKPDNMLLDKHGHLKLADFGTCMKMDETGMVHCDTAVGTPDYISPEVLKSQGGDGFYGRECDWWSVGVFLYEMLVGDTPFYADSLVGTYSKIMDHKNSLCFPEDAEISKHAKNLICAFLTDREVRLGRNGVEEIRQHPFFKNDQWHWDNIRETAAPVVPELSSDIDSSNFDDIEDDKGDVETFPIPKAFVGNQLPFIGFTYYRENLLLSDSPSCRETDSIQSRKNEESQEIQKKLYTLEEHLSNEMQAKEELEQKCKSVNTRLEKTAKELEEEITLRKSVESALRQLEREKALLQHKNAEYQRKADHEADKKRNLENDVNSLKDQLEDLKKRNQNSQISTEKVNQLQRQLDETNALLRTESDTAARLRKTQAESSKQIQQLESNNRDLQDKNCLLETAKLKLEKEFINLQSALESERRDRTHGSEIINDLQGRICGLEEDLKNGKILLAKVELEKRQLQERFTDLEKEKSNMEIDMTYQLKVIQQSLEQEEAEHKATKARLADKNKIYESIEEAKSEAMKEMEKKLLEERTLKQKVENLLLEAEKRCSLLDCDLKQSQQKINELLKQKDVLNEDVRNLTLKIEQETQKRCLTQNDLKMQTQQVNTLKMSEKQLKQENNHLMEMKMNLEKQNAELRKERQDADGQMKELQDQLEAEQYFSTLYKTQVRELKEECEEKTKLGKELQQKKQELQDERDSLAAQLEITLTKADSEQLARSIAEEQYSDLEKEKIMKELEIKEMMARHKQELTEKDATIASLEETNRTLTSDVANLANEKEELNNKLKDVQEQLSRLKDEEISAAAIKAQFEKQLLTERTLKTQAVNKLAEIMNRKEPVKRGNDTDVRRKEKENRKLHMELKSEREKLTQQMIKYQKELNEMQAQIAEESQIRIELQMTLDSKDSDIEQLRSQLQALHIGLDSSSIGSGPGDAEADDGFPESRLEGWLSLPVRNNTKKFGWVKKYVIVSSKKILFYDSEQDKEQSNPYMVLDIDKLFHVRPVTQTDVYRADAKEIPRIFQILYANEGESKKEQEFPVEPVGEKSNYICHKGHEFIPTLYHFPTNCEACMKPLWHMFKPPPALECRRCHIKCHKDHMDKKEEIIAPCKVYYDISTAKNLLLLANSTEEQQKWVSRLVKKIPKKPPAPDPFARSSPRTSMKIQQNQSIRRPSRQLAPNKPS

What does the source list for `COc1cc(C2C(C(=O)OCc3ccccc3)=C(C)Nc3nnnn32)ccc1O` (stereo not drawn) [BHDPC, benzyl 7-(4-hydroxy-3-methoxyphenyl)-5-methyl-4,7-dihydrotetrazolo[1,5-a]pyrimidine-6-carboxylate]?
pIC50 (ROCK2): 3.39; ratio of EdU+/oligo2 cells ([1]; 30 μM): increased; ratio of Ki67+/oligo2 cells [1]: increased; viability at 1 µM ([2]; 1 μM): 100%; viability at 3 µM ([2]; 3 μM): 106%; viability at 10 µM ([2]; 10 μM): 127%; viability at 30 µM ([2]; 30 μM): 152%; viability at 48 h, 100 µM [3]: 65%; hydrogen peroxide-induced cell death [4]: dramatically attenuated
